Values quoted from earlier work in patent US20220346434A1, “ORAL COMPOSITIONS AND METHODS OF MANUFACTURE” (NICOVENTURES TRADING LIMITED, priority 2021, published 2022).

Experiments:
[1] = for solubility in water / aqueous environment: water or aqueous environment (e.g., saliva)
[2] = converts via isomerization into trans-bixin (β-bixin)

| solubility in water / aqueous environment [1] | solubility in fats and alcohols ([1]; fats and alcohols) | chemical stability when isolated [2] | Compound |
| --- | --- | --- | --- |
| water soluble | – | – | CC(/C=C/C=C(C)/C=C/C(=O)O)=C\C=C\C=C(C)\C=C\C=C(C)\C=C\C(=O)O (stereo in doubt) [norbixin, (2E,4E,6E,8E,10E,12E,14E,16E,18E)-4,8,13,17-tetramethylicosa-2,4,6,8,10,12,14,16,18-nonaenedioic acid] |
| insoluble in water | soluble in fats and alcohols | chemically unstable when isolated | COC(=O)/C=C/C(C)=C\C=C\C(C)=C\C=C\C=C(C)\C=C\C=C(C)\C=C\C(=O)O [bixin] |

| Compound | solubility in water / aqueous environment [1] | solubility in fats and alcohols ([1]; fats and alcohols) | chemical stability when isolated [2] |
| --- | --- | --- | --- |
| C=C(C)[C@@H]1CCC(C)=C[C@H]1c1c(O)cc(CCCCC)cc1O [CBD, cannabidiol, reference compound] | insoluble in an aqueous environment | – | – |
